Test results from patent US20110245231A1, “ACTIVE SUBSTANCE AND PHARMACEUTICAL COMPOSITION FOR TREATING ALCOHOL DEPENDENCE, AND A METHOD FOR OBTAINING AND THE USE OF SAID ACTIVE SUBSTANCE” (Alla Chem, LLC, priority 2009, published 2011).

System: mice with formed alcohol dependence (male mice of SHK line)
Assay: Alcohol-deprivation effect (ADE): voluntary consumption of 10% alcohol in a 90-minute test before and after 4-day deprivation
Format: in vivo
Conditions: for Alcohol consumption before deprivation: baseline test before deprivation and dosing; for ADE (ADE index): index >0.5 = alcohol dependence
Description: Alcohol dependence is determined by the increasing of alcohol consumption induced by short-time deprivation of alcohol. The occurrence and the level of this increasing is a criterion for self-control loss during the period of heavy drinking [Maisky A. I., Salimov R. M. Procedural guidelines for investigation of anti-alcohol medications. The guidebook for experimental (preclinical) investigation of novel pharmacological substances. Ed. Harbiev R. U., publ. “Medicine”, Moscow, 2005, p. 342-356].
For overcoming of the possible first-use gustatory rejection of alcohol solution during the first 6 days of the experiment male mice of SHK line were not given water, they had access only to alcohol solution of increasing concentration (3%—on the first and second days, 6%—on the third and fourth days and 10%—on the fifth and sixth days) [Mc Kinzie et al., Alcohol Clin Exp Res. 1998, 22(7):1584-90]. At that, free access to food was provided. During the next 2 months the animals had free access to pure water, food and 10% solution of alcohol.
For quantitative estimation of alcohol motivation the amount of voluntary alcohol (10% solution) consumption during the 90-minute's test after 4-day's alcohol deprivation was compared with the amount of alcohol consumed during the test carried out before 4-day's alcohol deprivation (alcohol-deprivation effect, ADE). ADE index was calculated as a ratio of alcohol consumption after its withdrawal (grams of pure alcohol per kilogram of body mass) to the total alcohol consumption before and after its withdrawal. The existence of alcohol dependence is determined by the value of ADE index exceeding 0.5, a lower meaning of ADE index corresponds to the absence of alcohol dependence.
At the end of 2-month's period of free access to water and alcohol the above estimation of ADE was carried out, and for further experiments the animals with ADE index exceeding 0.5 were selected. These mice, which had practically identical ADE values, were divided into groups of 9-12 animals.
Sodium γ-hydroxybutyrate was used as a reference drug in the experiments with male mice of SHK line.
Peroral administration once a day for 4 days running

[1] = dose 0.5 mg/kg peroral once a day for 4 days during deprivation
[2] = dose 3.0 mg/kg peroral once a day for 4 days during deprivation
[3] = dose 10.0 mg/kg peroral once a day for 4 days during deprivation
[4] = dose 10.0 mg/kg peroral once a day for 4 days
[5] = dose 20.0 mg/kg peroral once a day for 4 days during deprivation
[6] = dose 150 mg/kg peroral once a day for 4 days during deprivation
[7] = dose 2.0 mg/kg peroral once a day for 4 days during deprivation

## Br.CCSc1nc2ccccc2[nH]1 [1.1, 2-ethylsulfanyl-1H-benzimidazole hydrobromide]
0.5 mg/kg dose
  alcohol-deprivation effect (increasing of alcohol consumption after 4-days' deprivation), observed or not: observed
3-20 mg/kg
  post-deprivation increasing of alcohol consumption, observed or not: not observed
[1]
  Alcohol consumption after deprivation: 4.36 ± 1.10 g/kg
  Alcohol consumption before deprivation: 1.96 ± 0.75 g/kg
Dose 0.5 mg/kg peroral once a day for 4 days
  ADE (ADE index): 0.65 ± 0.07
[2]
  Alcohol consumption after deprivation: 2.60 ± 1.10 g/kg
  Alcohol consumption before deprivation: 3.49 ± 0.75 g/kg
Dose 3.0 mg/kg peroral once a day for 4 days
  ADE (ADE index): 0.46 ± 0.07
[3]
  Alcohol consumption after deprivation: 1.59 ± 1.10 g/kg
  Alcohol consumption before deprivation: 2.79 ± 0.75 g/kg
[4]
  ADE (ADE index): 0.39 ± 0.07
[5]
  Alcohol consumption after deprivation: 1.55 ± 1.10 g/kg
  Alcohol consumption before deprivation: 2.56 ± 0.75 g/kg
Dose 20.0 mg/kg peroral once a day for 4 days
  ADE (ADE index): 0.31 ± 0.07
dose-dependent, more noticeable at 20 mg/kg
  dose at which the decrease of alcohol-deprivation effect appears: 3 mg/kg

## O=C([O-])CCCO.[Na+] [SHB, sodium γ-hydroxybutyrate]
[6]
  Alcohol consumption after deprivation: 1.49 ± 1.10 g/kg
  Alcohol consumption before deprivation: 2.36 ± 0.75 g/kg
Dose 150 mg/kg peroral once a day for 4 days
  ADE (ADE index): 0.45 ± 0.07
Reference drug, 150 mg/kg (Table 3)
  effect on alcohol-deprivation effect, in words: significant decreasing of alcohol-deprivation effect

## Cl.c1c(C2CCCCC2)cc2c3c(n4c2c1NCC4)CCCC3 [2.2, 5-cyclohexyl-2,3,7,8,9,10-hexahydro-1H-pyrazino[3,2,1-jk]carbazole hydrochloride]
2 and 10 mg/kg doses
  alcohol-deprivation effect (increasing of alcohol consumption after 4-days' deprivation), observed or not: observed
[7]
  Alcohol consumption after deprivation: 3.42 ± 1.16 g/kg
  Alcohol consumption before deprivation: 2.61 ± 0.79 g/kg
Dose 2.0 mg/kg peroral once a day for 4 days
  ADE (ADE index): 0.58 ± 0.08
[3]
  Alcohol consumption after deprivation: 5.05 ± 1.10 g/kg
  Alcohol consumption before deprivation: 2.61 ± 0.75 g/kg
[4]
  ADE (ADE index): 0.61 ± 0.07
Used alone in doses of 2-10 mg/kg
  influence on ADE, in words: does not influence ADE
